EC50 data for seven compounds are collected here from patent publication US20240270821A1, “GIP/GLP1/GCG TRI-RECEPTOR AGONISTS AND USES THEREOF” (priority 2023, published 2024).

Like-named read-outs stand apart in the source and are kept apart here. Starred links: 1 amine or outer side, 2 acyl side, 3 side chain; linkers in the order of their positions; H or OH if unused. Non-standard residues stand in square brackets, D forms with d. Residues, ends and D or L forms follow the SMILES beside them. Groups on a side chain read outwards from the residue. No end group written: not given here. *: point of attachment. C18 diacid = O=C(O)CCCCCCCCCCCCCCCCC(=O)*; αMePhe(2-F) = C[C@](N)(Cc1ccccc1F)C(=O)O; γGlu = O=C(O)[C@H](CCC(=O)[*:2])N[*:1]; αMe4Pal = C[C@](N)(Cc1ccncc1)C(=O)O; αMeY = C[C@](N)(Cc1ccc(O)cc1)C(=O)O; 4Pal = N[C@@H](Cc1ccncc1)C(=O)O; αMeL = CC(C)C[C@](C)(N)C(=O)O; αMeS = C[C@](N)(CO)C(=O)O; Orn = NCCC[C@H](N)C(=O)O; AEEA = NCCOCCOCC(=O)O; Aib = CC(C)(N)C(=O)O

Common to all, as to type: cell-based
The target of assay [1] is T1, hGIPR (Homo sapiens, UniProt P48546).
T1 sequence (P48546 22-466): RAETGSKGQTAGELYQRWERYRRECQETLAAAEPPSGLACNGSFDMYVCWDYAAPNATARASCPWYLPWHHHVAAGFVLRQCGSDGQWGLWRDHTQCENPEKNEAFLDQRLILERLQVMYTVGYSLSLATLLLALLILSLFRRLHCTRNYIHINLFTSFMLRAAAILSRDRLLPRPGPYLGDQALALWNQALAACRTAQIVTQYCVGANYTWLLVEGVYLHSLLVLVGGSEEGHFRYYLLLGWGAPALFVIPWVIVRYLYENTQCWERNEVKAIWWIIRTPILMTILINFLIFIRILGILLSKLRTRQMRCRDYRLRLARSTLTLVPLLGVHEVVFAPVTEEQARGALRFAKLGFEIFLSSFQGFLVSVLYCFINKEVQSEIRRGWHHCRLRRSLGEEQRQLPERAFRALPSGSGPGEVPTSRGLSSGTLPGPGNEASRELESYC
The assay is described as follows: Functional cAMP activity in the presence of 1% HSA. Conditions: read-out: cAMP Rel EC50, hGIPR.

Assay [2] deals with T2, hGLP-1R (Homo sapiens, UniProt P43220). In words: Functional cAMP activity in the presence of 1% HSA. The settings on record: read-out: cAMP Rel EC50, hGLP-1R.
T2 sequence (P43220 24-463): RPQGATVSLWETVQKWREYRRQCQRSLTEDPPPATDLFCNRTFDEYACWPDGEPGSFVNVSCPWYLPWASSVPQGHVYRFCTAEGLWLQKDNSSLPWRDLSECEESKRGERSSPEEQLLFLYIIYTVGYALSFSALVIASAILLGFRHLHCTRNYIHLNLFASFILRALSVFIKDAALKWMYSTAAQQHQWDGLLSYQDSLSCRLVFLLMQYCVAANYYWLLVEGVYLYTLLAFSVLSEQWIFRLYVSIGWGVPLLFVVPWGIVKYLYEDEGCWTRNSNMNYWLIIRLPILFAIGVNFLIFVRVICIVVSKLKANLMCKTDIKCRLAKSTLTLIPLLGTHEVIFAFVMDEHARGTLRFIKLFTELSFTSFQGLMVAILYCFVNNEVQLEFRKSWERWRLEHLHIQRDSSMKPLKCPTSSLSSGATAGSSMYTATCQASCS
For a further assay, the target named is human GcgR (Homo sapiens, UniProt P47871). In words: Functional cAMP activity in the presence of 1% HSA. The settings on record: read-out: cAMP Rel EC50, hGcgR.
Sequence of human GcgR (P47871 26-477): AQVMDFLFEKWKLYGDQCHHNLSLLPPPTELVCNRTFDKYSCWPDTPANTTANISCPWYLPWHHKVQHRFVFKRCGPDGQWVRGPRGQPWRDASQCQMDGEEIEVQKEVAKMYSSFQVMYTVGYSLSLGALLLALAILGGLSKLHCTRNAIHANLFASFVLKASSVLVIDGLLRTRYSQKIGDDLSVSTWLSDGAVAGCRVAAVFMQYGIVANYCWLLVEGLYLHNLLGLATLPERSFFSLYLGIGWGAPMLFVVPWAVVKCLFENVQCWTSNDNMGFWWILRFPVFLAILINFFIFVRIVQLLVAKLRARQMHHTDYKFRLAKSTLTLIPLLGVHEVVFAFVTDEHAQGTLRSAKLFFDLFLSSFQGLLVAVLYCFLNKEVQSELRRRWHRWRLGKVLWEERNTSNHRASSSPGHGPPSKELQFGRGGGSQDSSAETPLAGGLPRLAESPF
For assay [3], the target named is T1, hGIPR. In words: Functional cAMP activation in the presence of 0.1% casein (no HSA). The settings on record: read-out: Relative cAMP EC50, hGIPR.
Assay [4] addresses T2, hGLP-1R. The description is as above. Conditions: read-out: Relative cAMP EC50, hGLP-1R.
Another assay has as its target hGcgR (Homo sapiens, UniProt P47871). The assay is described as above. Conditions: read-out: Relative cAMP EC50, hGcgR.
Where [5] appears, read: HEK-293 clonal cell line, 1% HSA, geometric mean of relative EC50.
[6] abbreviates: in the presence of 0.1% casein (no HSA), geometric mean of relative EC50.
Where [7] appears, read: in the presence of 0.1% casein (no HSA), geometric mean.

One may read the EC50 as the concentration that produces a half-maximal response.
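Throughout, for Relative cAMP EC50, hGIPR: intracellular cAMP rise after 30 min at 37 °C read by HTRF against a standard curve, scaled between buffer alone (0%) and top control ligand concentration (100%), four-parameter fit.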
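Throughout, for Relative cAMP EC50, hGLP-1R: intracellular cAMP rise after 30 min at 37 °C read by HTRF, normalized between buffer only (0%) and maximal control ligand (100%), four-parameter variable-slope fit.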
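Throughout, for Relative cAMP EC50, hGcgR: intracellular cAMP rise after 30 min at 37 °C, read by HTRF against a cAMP standard curve, scaled from buffer only (0%) to maximal control ligand response (100%).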

Sequence of hGcgR (P47871 26-477): as above

With `CC[C@H](C)[C@H](NC(=O)[C@H](Cc1ccccc1)NC(=O)[C@H](C)NC(=O)C(C)(C)NC(=O)[C@H](CCC(N)=O)NC(=O)[C@H](C)NC(=O)[C@H](CCCCNC(=O)COCCOCCNC(=O)CC[C@H](NC(=O)CCCCCCCCCCCCCCCCC(=O)O)C(=O)O)NC(=O)[C@H](CCCCN)NC(=O)[C@H](CC(=O)O)NC(=O)[C@H](CC(C)C)NC(=O)[C@](C)(CC(C)C)NC(=O)[C@@H](NC(=O)[C@H](CO)NC(=O)[C@H](Cc1ccc(O)cc1)NC(=O)[C@H](CC(=O)O)NC(=O)[C@H](CO)NC(=O)[C@@H](NC(=O)[C@](C)(Cc1ccccc1F)NC(=O)[C@@H](NC(=O)CNC(=O)[C@H](CCC(N)=O)NC(=O)C(C)(C)NC(=O)[C@@H](N)Cc1ccc(O)cc1)[C@@H](C)O)[C@@H](C)O)[C@@H](C)CC)C(=O)N[C@@H](CCC(=O)O)C(=O)N[C@@H](Cc1ccc(O)cc1)C(=O)N[C@@H](CC(C)C)C(=O)N[C@@H](CCC(=O)O)C(=O)N[C@@H](CCC(=O)O)C(=O)NCC(=O)NCC(=O)N1CCC[C@H]1C(=O)N[C@@H](CO)C(=O)N[C@@H](CO)C(=O)NCC(=O)N[C@@H](C)C(=O)N1CCC[C@H]1C(=O)N[C@@H](CCC(=O)O)C(=O)N1CCC[C@H]1C(=O)N[C@@H](CO)C(N)=O` [Example 423] (H-Y[Aib]QGT[αMePhe(2-F)]TSDYSI[αMeL]LDKK([AEEA-γGlu-C18 diacid])AQ[Aib]AFIEYLEEGGPSSGAPEPS-NH2), the concentration giving a half-maximal response (EC50) at hGIPR [1] is 3.07 nM; on hGLP-1R [2], 28.7 nM; on human GcgR, 319 nM; at hGIPR [3], 0.0114 nM; at hGLP-1R [4], 0.194 nM; at hGcgR, 1.92 nM.

Turning to “Y[Aib]QGT[αMePhe(2-F)]TSD[4Pal][αMeS]I[αMeL]LD[Orn]K([AEEA-γGlu-C18 diacid])AA[Aib]EFI[dE][αMeY]LIEGGPSSGEPPPSGTE-NH2 [Example 719]”, the half-maximal effective concentration (EC50) was 0.882 nM at hGIPR [1] (setting [5]); 23.2 nM on hGLP-1R [2] (setting [5]); 181 nM at human GcgR (setting [5]); 0.00998 nM at hGIPR [3] (setting [6]); 0.22 nM on hGLP-1R [4] (setting [6]); 1.44 nM at hGcgR (setting [6]).

For “H-Y[Aib]QGT[αMePhe(2-F)]TSD[4Pal]SILLDKK([γGlu-γGlu-C18 diacid])AQ[Aib]AFIEYLEEGGPSSGAPPPEGTE-NH2 [Example 659]”, the EC50 at hGIPR [1] is 5.75 nM; at hGLP-1R [2], 81.5 nM; on human GcgR, 735 nM; at hGIPR [3] it was 0.0673 nM; on hGLP-1R [4] it was 1.31 nM; on hGcgR, 5.89 nM.

On to `CC[C@H](C)[C@H](NC(=O)[C@H](Cc1ccccc1)NC(=O)[C@H](CCCN)NC(=O)C(C)(C)NC(=O)[C@H](CCC(N)=O)NC(=O)[C@H](C)NC(=O)[C@H](CCCCNC(=O)COCCOCCNC(=O)CC[C@H](NC(=O)CCCCCCCCCCCCCCCCC(=O)O)C(=O)O)NC(=O)[C@H](CCCN)NC(=O)[C@H](CC(=O)O)NC(=O)[C@H](CC(C)C)NC(=O)[C@](C)(CC(C)C)NC(=O)[C@@H](NC(=O)[C@](C)(CO)NC(=O)[C@H](Cc1ccncc1)NC(=O)[C@H](CC(=O)O)NC(=O)[C@H](CO)NC(=O)[C@@H](NC(=O)[C@](C)(Cc1ccccc1F)NC(=O)[C@@H](NC(=O)CNC(=O)[C@H](CCC(N)=O)NC(=O)C(C)(C)NC(=O)[C@@H](N)Cc1ccc(O)cc1)[C@@H](C)O)[C@@H](C)O)[C@@H](C)CC)C(=O)N[C@H](CCC(=O)O)C(=O)N[C@@](C)(Cc1ccc(O)cc1)C(=O)N[C@@H](CC(C)C)C(=O)N[C@@H](CC(C)C)C(=O)N[C@@H](CCC(=O)O)C(=O)NCC(=O)NCC(=O)N1CCC[C@H]1C(=O)N[C@@H](CO)C(=O)N[C@@H](CO)C(=O)NC(C)(C)C(=O)N[C@@H](CCC(=O)O)C(=O)N1CCC[C@H]1C(=O)N1CCC[C@H]1C(=O)N1CCC[C@H]1C(=O)N[C@@H](CCC(=O)O)C(N)=O` [Example 380] (H-Y[Aib]QGT[αMePhe(2-F)]TSD[4Pal][αMeS]I[αMeL]LD[Orn]K([AEEA-γGlu-C18 diacid])AQ[Aib][Orn]FI[dE][αMeY]LLEGGPSS[Aib]EPPPE-NH2), for which the EC50 on hGIPR [1] (HEK-293 clonal cells expressing hGIPR, in the presence of 1% HSA, geometric mean of relative EC50) is 7.77 nM; at hGLP-1R [2] (HEK-293 clonal cells expressing hGLP-1R, in the presence of 1% HSA, geometric mean of relative EC50), 30.6 nM; at human GcgR (HEK-293 clonal cells expressing hGcgR, in the presence of 1% HSA, geometric mean of relative EC50), 150 nM; at hGIPR [3] (setting [7]), 0.0346 nM; at hGLP-1R [4] (setting [7]), 0.354 nM; on hGcgR (setting [7]) it was 1.17 nM.

As for `CC[C@H](C)[C@H](NC(=O)[C@H](CC(C)C)NC(=O)[C@H](Cc1ccc(O)cc1)NC(=O)[C@H](CCC(=O)O)NC(=O)[C@@H](NC(=O)[C@H](Cc1ccccc1)NC(=O)[C@H](CCCN)NC(=O)C(C)(C)NC(=O)[C@H](CCC(N)=O)NC(=O)[C@H](C)NC(=O)[C@H](CCCCNC(=O)COCCOCCNC(=O)CC[C@H](NC(=O)CCCCCCCCCCCCCCCCC(=O)O)C(=O)O)NC(=O)[C@H](CCCN)NC(=O)[C@H](CC(=O)O)NC(=O)[C@H](CC(C)C)NC(=O)[C@](C)(CC(C)C)NC(=O)[C@@H](NC(=O)[C@](C)(CO)NC(=O)[C@H](Cc1ccncc1)NC(=O)[C@H](CC(=O)O)NC(=O)[C@H](CO)NC(=O)[C@@H](NC(=O)[C@](C)(Cc1ccccc1F)NC(=O)[C@@H](NC(=O)CNC(=O)[C@H](CCC(N)=O)NC(=O)C(C)(C)NC(=O)[C@@H](N)Cc1ccc(O)cc1)[C@@H](C)O)[C@@H](C)O)[C@@H](C)CC)[C@@H](C)CC)C(=O)N[C@@H](CCC(=O)O)C(=O)NCC(=O)NCC(=O)N1CCC[C@H]1C(=O)N[C@@H](CO)C(=O)N[C@@H](CO)C(=O)NCC(=O)N[C@@H](CCC(=O)O)C(=O)N1CCC[C@H]1C(=O)N1CCC[C@H]1C(=O)N1CCC[C@H]1C(=O)N[C@@H](CCC(=O)O)C(N)=O` [Example 459] (H-Y[Aib]QGT[αMePhe(2-F)]TSD[4Pal][αMeS]I[αMeL]LD[Orn]K([AEEA-γGlu-C18 diacid])AQ[Aib][Orn]FIEYLIEGGPSSGEPPPE-NH2), the EC50 on hGIPR [1] stood at 2.06 nM; at hGLP-1R [2] it was 12.6 nM; at human GcgR it was 73.6 nM; on hGIPR [3], 0.0122 nM; on hGLP-1R [4] it was 0.179 nM; on hGcgR, 1.21 nM.

For “H-Y[Aib]QGTFTSD[4Pal]SQ[αMeL]LDKK([γGlu-γGlu-C18 diacid])AQ[αMe4Pal]AFIEYLIAGGPSSGEPPPSGS-NH2 [Example 968]”, the EC50 came out at 11.7 nM on hGIPR [1]; 103 nM at hGLP-1R [2]; 625 nM on human GcgR; 0.0928 nM at hGIPR [3] (setting [7]); 1.04 nM on hGLP-1R [4] (setting [7]); 4.72 nM on hGcgR (setting [7]).

For the compound “H-Y[Aib]QGTFTSD[4Pal]SQ[αMeL]LD[Orn]K([γGlu-γGlu-C18 diacid])AQ[αMe4Pal]AFIE[αMeY]LIA[Aib]GPSSGEPPPSGSEE-NH2 [Example 1094]”, the concentration for a half-maximal effect (EC50) on hGIPR [1] was 5.86 nM; on hGLP-1R [2], 64.4 nM; on human GcgR, 831 nM; at hGIPR [3] (setting [7]), 0.0515 nM; on hGLP-1R [4] (setting [7]), 0.623 nM; on hGcgR (setting [7]), 5.84 nM.
